In one assay the target is α3β4 nAChR (Rattus norvegicus (Rat), UniProt P04757+P12392). Kind of assay: [3H]-epibatidine competition binding, α3β4. Particulars: Table 1; mean of 3 to 5 measurements. The procedure: (§1) In Vitro Binding Affinities for nAChR Subtypes. […] To determine selectivities of these compounds in binding assays among the three predominant nAChR subtypes, α3β4, α4β2 and α7, the ratios of Ki values (α3β4/α4β2 and α7/α4β2) were determined.
(§2) Cell Lines and Cell Culture. The cell lines expressing defined rat nAChR subtypes were established previously by stably transfecting HEK 293 cells with rat nAChR subunit genes. The cell line expressing human α4β2 nAChRs, YXα4β2H1, was established recently. These cell lines were maintained in minimum essential medium (MEM) supplemented with 10% fetal bovine serum, 100 units/mL penicillin G, […] and selective antibiotics at 37° C. with 5% CO2 in a humidified incubator. Fetal bovine serum was provided by Gemini Bio-Products (Woodland, Calif.). Tissue culture medium and antibiotics were obtained from Invitrogen Corporation (Carlsbad, Calif.), unless otherwise stated.
(§3) Briefly, cultured cells at >80% confluence were removed from their flasks (80 cm^2) with a disposable cell scraper and placed in 10 mL of 50 mM Tris.HCl buffer (pH 7.4, 4° C.). The cell suspension was centrifuged at 10,000×g for 5 min and the pellet was collected. The cell pellet was then homogenized in 10 mL buffer with a polytron homogenizer and centrifuged at 36,000 g for 10 min at 4° C. The membrane pellet was resuspended in fresh buffer, and aliquots of the membrane preparation were used for binding assays. […] Bound and free ligands were separated by vacuum filtration through Whatman GF/C filters treated with 0.5% polyethylenimine. The filter-retained radioactivity was measured by liquid scintillation counting. Specific binding was defined as the difference between total binding and nonspecific binding. Data from competition binding assays were analyzed using Prism 5 (GraphPad Software, San Diego, Calif.).
(§4) Pharmacological Properties. We measured the in vitro binding affinities of the ligands for defined receptor subtypes (α2β2, α2β4, α3β2, α3β4, α4β2, α4β4, α6β2, α6β4, and α7) expressed in stably transfected cell lines. […] Rat forebrain homogenates were included to allow comparison between the heterologous and native α4β2 and α7 nAChRs. See Table 1 for binding affinity values (Ki) of the ligands at the three major nAChR subtypes (α3β4. α4β2 and α7).

In another assay the target is α4β2 nAChR (Rattus norvegicus (Rat), UniProt P09483+P12390). Nature of the assay: biochemical. Format: binding. The procedure:
as §1, §2, §3, §4

The target of the next assay is α7 nAChR (Rattus norvegicus (Rat), UniProt Q05941). Format: binding. Particulars: Table 1; mean of 3 to 5 measurements. On the procedure: as §1, §2, §3, §4

The structures appear in SMILES notation.

α4β2 nAChR, sequence (P09483 31-630 limits assumed): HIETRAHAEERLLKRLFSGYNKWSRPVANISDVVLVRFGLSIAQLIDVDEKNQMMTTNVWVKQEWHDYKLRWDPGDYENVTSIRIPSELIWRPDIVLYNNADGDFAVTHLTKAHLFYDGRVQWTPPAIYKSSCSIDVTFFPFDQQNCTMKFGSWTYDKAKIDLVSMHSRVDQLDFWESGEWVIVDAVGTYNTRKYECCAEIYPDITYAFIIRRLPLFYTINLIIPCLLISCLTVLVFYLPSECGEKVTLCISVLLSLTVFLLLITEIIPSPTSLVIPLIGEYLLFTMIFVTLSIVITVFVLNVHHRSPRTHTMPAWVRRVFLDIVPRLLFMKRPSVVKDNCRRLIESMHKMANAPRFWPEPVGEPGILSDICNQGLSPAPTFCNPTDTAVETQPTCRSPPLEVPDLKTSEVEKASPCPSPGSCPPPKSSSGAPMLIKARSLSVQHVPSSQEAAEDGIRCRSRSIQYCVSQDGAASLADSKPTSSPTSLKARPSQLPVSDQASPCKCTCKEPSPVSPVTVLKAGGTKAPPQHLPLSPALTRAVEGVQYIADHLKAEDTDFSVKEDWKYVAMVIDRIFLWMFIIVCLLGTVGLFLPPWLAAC
α4β2 nAChR, sequence (P12390 25-500 limits assumed): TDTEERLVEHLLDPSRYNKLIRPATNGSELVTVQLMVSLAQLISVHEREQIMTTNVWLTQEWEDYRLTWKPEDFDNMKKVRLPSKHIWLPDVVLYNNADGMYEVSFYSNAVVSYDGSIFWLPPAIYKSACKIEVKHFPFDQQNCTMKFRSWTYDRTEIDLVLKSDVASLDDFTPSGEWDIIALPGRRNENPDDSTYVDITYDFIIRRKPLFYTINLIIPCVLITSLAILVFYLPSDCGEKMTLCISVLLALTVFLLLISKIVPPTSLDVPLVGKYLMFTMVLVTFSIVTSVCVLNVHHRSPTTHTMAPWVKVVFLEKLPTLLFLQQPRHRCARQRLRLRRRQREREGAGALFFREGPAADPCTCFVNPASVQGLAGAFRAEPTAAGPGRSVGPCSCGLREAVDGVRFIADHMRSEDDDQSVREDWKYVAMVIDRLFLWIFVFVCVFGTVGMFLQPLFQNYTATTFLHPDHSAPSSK
α3β4 nAChR, sequence (P04757 26-499): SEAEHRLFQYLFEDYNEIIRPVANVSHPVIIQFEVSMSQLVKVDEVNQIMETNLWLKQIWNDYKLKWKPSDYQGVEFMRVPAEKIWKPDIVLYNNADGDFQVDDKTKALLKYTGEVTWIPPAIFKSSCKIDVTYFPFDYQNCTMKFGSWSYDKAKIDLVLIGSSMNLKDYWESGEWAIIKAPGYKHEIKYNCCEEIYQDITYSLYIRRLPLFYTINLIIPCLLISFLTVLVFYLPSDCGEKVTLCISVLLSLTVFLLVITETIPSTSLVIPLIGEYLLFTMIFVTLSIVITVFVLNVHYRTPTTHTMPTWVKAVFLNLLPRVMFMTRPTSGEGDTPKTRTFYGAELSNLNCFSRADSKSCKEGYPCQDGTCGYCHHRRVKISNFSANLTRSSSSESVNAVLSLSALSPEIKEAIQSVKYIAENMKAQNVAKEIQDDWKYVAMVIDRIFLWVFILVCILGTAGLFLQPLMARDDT
α3β4 nAChR, sequence (P12392 21-495): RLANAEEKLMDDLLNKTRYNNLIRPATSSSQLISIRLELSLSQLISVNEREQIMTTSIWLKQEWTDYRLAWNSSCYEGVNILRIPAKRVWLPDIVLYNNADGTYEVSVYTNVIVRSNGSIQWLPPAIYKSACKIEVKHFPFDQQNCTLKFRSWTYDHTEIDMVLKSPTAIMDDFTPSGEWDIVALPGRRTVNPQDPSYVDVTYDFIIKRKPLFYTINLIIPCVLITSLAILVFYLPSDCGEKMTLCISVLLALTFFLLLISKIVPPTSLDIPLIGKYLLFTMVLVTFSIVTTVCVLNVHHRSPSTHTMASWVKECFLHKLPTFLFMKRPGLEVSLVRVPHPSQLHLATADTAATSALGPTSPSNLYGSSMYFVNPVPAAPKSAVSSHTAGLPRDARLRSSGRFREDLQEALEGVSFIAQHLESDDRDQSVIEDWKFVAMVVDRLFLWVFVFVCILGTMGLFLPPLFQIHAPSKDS
α7 nAChR, sequence (Q05941 23-502 limits assumed): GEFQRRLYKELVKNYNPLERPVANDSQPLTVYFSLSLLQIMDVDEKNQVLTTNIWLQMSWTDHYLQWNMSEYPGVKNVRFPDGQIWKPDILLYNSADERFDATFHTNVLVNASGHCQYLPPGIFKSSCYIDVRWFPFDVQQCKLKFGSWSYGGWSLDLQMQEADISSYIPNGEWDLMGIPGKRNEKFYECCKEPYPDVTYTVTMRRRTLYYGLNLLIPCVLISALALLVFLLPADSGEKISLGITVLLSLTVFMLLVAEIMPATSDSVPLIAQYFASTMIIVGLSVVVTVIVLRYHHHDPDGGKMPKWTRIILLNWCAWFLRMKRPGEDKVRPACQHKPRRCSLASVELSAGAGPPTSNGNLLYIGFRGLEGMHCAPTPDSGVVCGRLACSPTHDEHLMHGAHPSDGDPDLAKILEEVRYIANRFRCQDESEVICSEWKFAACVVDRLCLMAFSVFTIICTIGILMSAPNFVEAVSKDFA

What is called Ki is the equilibrium dissociation constant of an inhibitor or competing ligand from its target. On to `CCCCC#Cc1cnc(C)c(OC[C@@H]2CCN2)c1` [(S)-15, (S)-3-(azetidin-2-ylmethoxy)-5-(hex-1-ynyl)-2-methylpyridine], for which the Ki on α3β4 nAChR came out at 230 µM; on α4β2 nAChR (Table 3 (Example 4), read-out: Ki α4β2), 0.012 µM; on α7 nAChR it was 93 µM. The “Ki Ratio α3β4/α4β2” value at α4β2 nAChR (selectivity for α4β2 over α3β4) is 19,000. The “Ki Ratio α7/α4β2” value on α4β2 nAChR (selectivity for α4β2 over α7) is given as 7,800.

Values taken from US9303017B2, “2,5-disubstituted-pyridyl nicotinic ligands, and methods of use thereof” (Georgetown University, priority 2011, dated 2016).
